The source of these data is patent US6117841A, “Substituted peptidylamine calcium channel blockers” (Warner-Lambert Company, priority 1999, dated 2000).

For the assay, the target named is T1, N-type Ca^2+ Channel (Homo sapiens, UniProt Q00975).
T1 construct: host or cells: IMR-32 cells differentiated with dibutyryl cAMP and bromodeoxyuridine
Description: Measurement of N-type Ca2+ channel blocking potencies in IMR-32 cells using the fluorescent Ca2+ indicator Indo-1. Type of assay: cell-based. In a few lines: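 IMR-32 cells were differentiated 7–13 days (1 mM dibutyryl cAMP, 2.5 µM BrdU) and Indo-1-loaded. They were preincubated 10 min at 30 °C with compound and 5 µM nitrendipine in HEPES/Tris pH 7.4 HBSS with 0.5% BSA, then KCl/CaCl2-depolarized. The peak-minus-basal 400/490 nm emission ratio gave IC50 by four-parameter logistic fit.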

[1] abbreviates: IMR-32 cells, 5 μM nitrendipine, Examples 116-140, read-out: IMR 32% of Blockade @.
[2] abbreviates: IMR-32 cells, K+ depolarization, 5 μM nitrendipine to block L-type channels, read-out: IMR 32 IC50.

Like-named read-outs stand apart in the source and are kept apart here.

T1 sequence (Q00975 whole entry): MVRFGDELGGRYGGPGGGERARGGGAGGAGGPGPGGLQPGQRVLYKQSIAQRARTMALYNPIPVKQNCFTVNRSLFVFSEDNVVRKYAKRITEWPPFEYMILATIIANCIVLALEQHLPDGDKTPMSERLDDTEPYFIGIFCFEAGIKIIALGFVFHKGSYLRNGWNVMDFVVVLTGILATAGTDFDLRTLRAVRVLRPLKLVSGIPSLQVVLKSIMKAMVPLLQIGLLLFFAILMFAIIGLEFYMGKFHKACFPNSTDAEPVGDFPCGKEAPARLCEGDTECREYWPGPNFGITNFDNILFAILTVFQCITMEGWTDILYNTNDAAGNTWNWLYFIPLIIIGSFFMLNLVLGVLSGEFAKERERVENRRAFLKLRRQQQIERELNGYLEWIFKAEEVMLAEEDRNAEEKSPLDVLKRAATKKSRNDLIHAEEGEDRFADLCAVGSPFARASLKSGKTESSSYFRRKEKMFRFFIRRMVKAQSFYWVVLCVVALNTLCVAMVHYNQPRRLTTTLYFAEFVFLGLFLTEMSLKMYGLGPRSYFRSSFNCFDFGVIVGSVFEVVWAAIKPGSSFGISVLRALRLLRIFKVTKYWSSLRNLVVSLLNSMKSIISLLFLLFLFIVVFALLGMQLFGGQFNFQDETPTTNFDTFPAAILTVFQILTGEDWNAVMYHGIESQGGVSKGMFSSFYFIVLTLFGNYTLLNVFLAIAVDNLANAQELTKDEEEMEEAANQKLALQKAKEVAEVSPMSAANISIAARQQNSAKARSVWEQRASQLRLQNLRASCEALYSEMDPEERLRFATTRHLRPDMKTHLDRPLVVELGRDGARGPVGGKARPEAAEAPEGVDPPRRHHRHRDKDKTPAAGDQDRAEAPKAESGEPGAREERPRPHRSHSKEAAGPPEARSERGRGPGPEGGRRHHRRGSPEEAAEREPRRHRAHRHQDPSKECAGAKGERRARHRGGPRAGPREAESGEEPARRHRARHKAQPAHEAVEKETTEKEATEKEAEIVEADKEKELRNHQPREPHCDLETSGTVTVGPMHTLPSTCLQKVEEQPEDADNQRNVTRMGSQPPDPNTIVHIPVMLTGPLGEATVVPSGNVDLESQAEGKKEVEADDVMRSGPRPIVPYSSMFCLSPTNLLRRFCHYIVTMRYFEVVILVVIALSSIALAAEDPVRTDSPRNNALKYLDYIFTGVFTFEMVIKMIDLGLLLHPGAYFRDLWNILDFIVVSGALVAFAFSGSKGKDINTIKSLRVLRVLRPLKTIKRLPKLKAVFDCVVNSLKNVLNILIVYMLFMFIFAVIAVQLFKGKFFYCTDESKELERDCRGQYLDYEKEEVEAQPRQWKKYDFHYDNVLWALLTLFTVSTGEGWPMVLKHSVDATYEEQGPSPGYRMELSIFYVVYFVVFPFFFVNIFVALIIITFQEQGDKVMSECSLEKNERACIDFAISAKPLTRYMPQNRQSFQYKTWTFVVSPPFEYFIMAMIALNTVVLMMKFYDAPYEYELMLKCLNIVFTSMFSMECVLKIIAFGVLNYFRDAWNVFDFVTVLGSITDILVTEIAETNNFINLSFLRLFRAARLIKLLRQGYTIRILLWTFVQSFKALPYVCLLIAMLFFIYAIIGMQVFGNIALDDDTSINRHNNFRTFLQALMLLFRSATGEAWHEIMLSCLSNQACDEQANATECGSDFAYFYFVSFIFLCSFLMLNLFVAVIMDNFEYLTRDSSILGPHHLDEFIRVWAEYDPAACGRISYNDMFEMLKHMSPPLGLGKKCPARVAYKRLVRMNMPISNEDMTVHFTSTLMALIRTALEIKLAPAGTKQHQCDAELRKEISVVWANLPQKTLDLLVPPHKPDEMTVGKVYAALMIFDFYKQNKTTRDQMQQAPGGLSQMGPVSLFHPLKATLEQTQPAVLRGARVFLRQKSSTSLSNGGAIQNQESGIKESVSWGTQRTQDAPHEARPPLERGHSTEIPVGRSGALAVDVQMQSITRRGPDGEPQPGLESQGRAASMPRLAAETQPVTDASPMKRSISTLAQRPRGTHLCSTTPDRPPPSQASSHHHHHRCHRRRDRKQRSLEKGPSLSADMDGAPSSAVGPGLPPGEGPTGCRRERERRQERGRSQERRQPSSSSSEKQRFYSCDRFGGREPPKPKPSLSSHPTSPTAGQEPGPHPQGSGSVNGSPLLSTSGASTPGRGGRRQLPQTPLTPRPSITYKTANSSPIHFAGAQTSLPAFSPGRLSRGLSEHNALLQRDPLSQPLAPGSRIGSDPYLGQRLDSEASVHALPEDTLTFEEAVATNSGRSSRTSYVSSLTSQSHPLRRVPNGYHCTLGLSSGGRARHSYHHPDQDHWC
T1 sequence (P54284 whole entry partner): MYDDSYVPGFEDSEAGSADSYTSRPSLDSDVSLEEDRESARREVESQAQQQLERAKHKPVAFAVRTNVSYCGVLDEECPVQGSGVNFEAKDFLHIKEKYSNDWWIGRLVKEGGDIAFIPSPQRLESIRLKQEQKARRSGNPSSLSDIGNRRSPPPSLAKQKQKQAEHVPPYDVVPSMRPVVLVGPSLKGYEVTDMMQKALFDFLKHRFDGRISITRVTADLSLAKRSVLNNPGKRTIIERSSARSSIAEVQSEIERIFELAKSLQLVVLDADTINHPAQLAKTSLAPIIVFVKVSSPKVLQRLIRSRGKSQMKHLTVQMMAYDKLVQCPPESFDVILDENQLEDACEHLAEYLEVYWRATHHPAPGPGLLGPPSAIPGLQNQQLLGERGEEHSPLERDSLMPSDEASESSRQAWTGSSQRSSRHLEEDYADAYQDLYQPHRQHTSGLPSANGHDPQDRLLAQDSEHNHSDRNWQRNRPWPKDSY
T1 sequence (P54289 25-946 partner limits assumed): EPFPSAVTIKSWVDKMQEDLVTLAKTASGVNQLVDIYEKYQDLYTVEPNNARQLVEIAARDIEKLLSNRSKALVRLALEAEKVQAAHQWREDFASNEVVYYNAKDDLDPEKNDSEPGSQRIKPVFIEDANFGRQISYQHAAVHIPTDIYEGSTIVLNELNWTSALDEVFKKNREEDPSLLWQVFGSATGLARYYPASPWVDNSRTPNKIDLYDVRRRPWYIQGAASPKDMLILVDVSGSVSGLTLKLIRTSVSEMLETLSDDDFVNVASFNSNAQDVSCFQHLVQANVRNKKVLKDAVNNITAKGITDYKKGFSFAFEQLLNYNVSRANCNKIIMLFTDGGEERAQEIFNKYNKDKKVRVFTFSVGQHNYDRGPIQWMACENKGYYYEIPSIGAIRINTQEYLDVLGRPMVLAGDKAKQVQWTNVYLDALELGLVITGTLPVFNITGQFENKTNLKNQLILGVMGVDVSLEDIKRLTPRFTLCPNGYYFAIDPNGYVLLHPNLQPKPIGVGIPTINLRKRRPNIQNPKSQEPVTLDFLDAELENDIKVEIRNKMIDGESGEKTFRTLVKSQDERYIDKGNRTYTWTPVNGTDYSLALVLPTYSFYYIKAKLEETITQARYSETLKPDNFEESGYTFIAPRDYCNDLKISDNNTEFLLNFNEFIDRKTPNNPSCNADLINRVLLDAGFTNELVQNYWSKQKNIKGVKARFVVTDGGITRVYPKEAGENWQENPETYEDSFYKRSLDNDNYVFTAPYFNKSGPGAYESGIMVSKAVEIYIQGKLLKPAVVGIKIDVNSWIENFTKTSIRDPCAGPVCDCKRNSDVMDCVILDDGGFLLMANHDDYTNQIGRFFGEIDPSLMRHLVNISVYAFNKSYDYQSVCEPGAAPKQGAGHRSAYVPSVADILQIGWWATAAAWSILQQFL
T1 sequence (P54289 947-1103 partner limits assumed): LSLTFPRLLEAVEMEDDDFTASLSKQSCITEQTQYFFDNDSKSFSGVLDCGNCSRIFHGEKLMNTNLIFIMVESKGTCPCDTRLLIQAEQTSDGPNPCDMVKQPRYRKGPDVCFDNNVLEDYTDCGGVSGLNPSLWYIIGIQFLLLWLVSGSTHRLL

On to `CC(C)C[C@@H](C(=O)N[C@@H](Cc1ccc(OCc2ccccc2)cc1)C(=O)NC(C)CO)N(C)C` (relative stereo) [Example 136, [S-(R*,R*)]-2-Dimethylamino-4-methyl-pentanoic acid [2-(4-benzyloxy-phenyl)-1-(2-aminopropan-1-olcarbamoyl)-ethyl]-amide], for which the IC50 under setting [1] is 3600 nM. On to `CCC(COC)NC(=O)[C@H](Cc1ccc(OCc2ccccc2)cc1)NC(=O)[C@H](CC(C)C)N(C)C` (relative stereo) [Example 138, [S-(R*,R*)]-2-Dimethylamino-4-methyl-pentanoic acid [2-(4-benzyloxy-phenyl)-1-(1-methoxymethyl-propylcarbamoyl)-ethyl]-amide], for which the IC50 under setting [1] came to 3000 nM. For `CC(C)C[C@@H](C(=O)N[C@@H](Cc1ccc(OCc2ccccc2)cc1)C(=O)NCCN1CCCC1)N(C)C` (relative stereo) [Example 139, [S-(R*,R*)]-2-Dimethylamino-4-methyl-pentanoic acid [2-(4-benzyloxy-phenyl)-1-(2-pyrrolidin-1-yl-ethylcarbamoyl)-ethyl]-amide], the IC50 under setting [1] came out at 38800 nM.

Consider `CCN(CC)C(CC(C)C)C(=O)N[C@@H](Cc1ccc(OCc2ccccc2)cc1)C(=O)NC(C)(C)C` (stereo in doubt) [Example 37, [S-(R*,R*/S*)]-2-Diethylamino-4-methyl-pentanoic acid[2-(4-benzyloxy-phenyl)-1-tert-butylcarbamoyl-ethyl]-amide], for which the IC50 (read-out: IMR 32 IC50) was found to be 1000 nM.

On to `CC(C)CCN(C)[C@@H](CC(C)C)C(=O)NC(Cc1ccc(OCc2ccccc2)cc1)C(=O)NCCNCc1ccccc1` (stereo in doubt) [Example 60, [S(R*,R*)]-4-Methyl-2-[methyl-(3-methyl-butyl)-amino]-pentanoic acid [1-(2-benzylamino-ethylcarbamoyl)-2-(4-benzyloxy-phenyl)-ethyl]-amide], for which the IC50 under setting [2] amounted to 200 nM.

As to `CC(C)CCN(C)C(CC(C)C)C(=O)NC(Cc1ccc(OCc2ccccc2)cc1)C(=O)N1CCN(Cc2ccccc2)CC1` (stereo not drawn) [Example 10, [S-(R*,R*)]4-Methyl-2-[methyl-(3-methyl-butyl)-amino]-pentanoic acid [1-(4-benzyloxy-benzyl)-2-(4-benzyl-piperazin-1-yl)-2-oxo-ethyl]-amide], the “IMR 32 % of Blockade @ 1 μM” value (1 μM, IMR-32 cells, 5 μM nitrendipine) was found to be 61%. Moreover, the “IMR 32 % of Blockade @ 10 μM” value (10 μM, IMR-32 cells, 5 μM nitrendipine) was 80%. In the case of `CC(C)CC(C(=O)NC(Cc1ccc(OCc2ccccc2)cc1)C(=O)N1CCN(C)CC1)N(C)CC1CCCCC1` (stereo not drawn) [Example 30, [S-(R*,R*)]-2-(Cyclohexylmethyl-methyl-amino)-4-methyl-pentanoic acid [1-(4-benzyloxy-benzyl)-2-(4-methyl-piperazin-1-yl)-2-oxo-ethyl]-amide], under setting [2], the IC50 turned out to be 1200 nM. For `CCN(CCC(C)C)C(CC(C)C)C(=O)NC(Cc1ccc(OCc2ccccc2)cc1)C(=O)NC(C)(C)C` (stereo not drawn) [Example 45, [S-(R*,R*)]-4Methyl-2-[ethyl-(3-methyl-butyl)-amino]-pentanoic acid [2-(4-benzyloxy-phenyl)-1-tert-butylcarbamoyl-ethyl]-amide], the “IMR 32 % of Blockade @ 0.3 μM” value (0.3 μM, IMR-32 cells, 5 μM nitrendipine) stood at 45%. In addition, where the note is “3 μM, IMR-32 cells, 5 μM nitrendipine”, the “IMR 32 % of Blockade @ 3 μM” value came out at 77%. In the case of `CC(C)CC(NCc1ccc(C(C)(C)C)cc1)C(=O)NC(Cc1ccc(OCc2ccccc2)cc1)C(=O)NC(C)(C)C` (stereo not drawn) [Example 50, [S-(R*,R*)]-2-(4-tert-Butyl-benzylamino)-4-methyl-pentanoic acid [2-(4-benzyloxy-phenyl)-1-tert-butylcarbamoyl-ethyl]-amide], the IC50 under setting [2] came to 420 nM. Regarding `CC(C)CC(C(=O)NC(Cc1ccc(OCc2ccccc2)cc1)C(=O)NC(C)(C)C)N(C)Cc1ccccc1` (stereo not drawn) [Example 54, [S-(R*,R*)]-2-(Benzyl-methyl-amino)-4-methyl-pentanoic acid [2-(4-benzyloxy-phenyl)-1-tert-butylcarbamoyl-ethyl]-amide], the IC50 under setting [2] turned out to be 360 nM. Take `CC(C)CC(C(=O)NC(Cc1ccc(NCc2ccccc2)cc1)C(=O)NC(C)(C)C)N(C)Cc1ccc(C(C)(C)C)cc1` (stereo not drawn) [Example 55, [S-(R*,R*)]-2-[(4-tert-Butyl-benzyl)-methyl-amino]-4-methyl-pentanoic acid [2-(4-benzylamino-phenyl)-1-tert-butylcarbamoyl-ethyl]-amide]: the IC50 under setting [2] is 100 nM. On the same count and under the same terms, with `CC(C)CCN(C)C(CC(C)C)C(=O)NC(Cc1ccc(OCc2ccccc2)cc1)C(=O)NCCNCCO` (stereo not drawn) [Example 66, [S-(R*,R*)]-4-Methyl-2-[methyl-(3-methyl-butyl)-amino]-pentanoic acid {2-(4-benzyloxy-phenyl)-1-[2-(2-hydroxy-ethylamino)-ethylcarbamoyl]-ethyl}-amide] the figure was 1900 nM. For `CC(C)CC(C(=O)NC(Cc1ccc(OCc2ccccc2)cc1)C(=O)N1CCCCC1)N1CCOCC1` (stereo not drawn) [Example 70, [S-(R*,R*)]-4-Methyl-2-morpholin-4-yl-pentanoic acid [1-(4-benzyloxy-benzyl)-2-oxo-2-piperidin-1-yl-ethyl]-amide], under setting [2], the IC50 is 2300 nM. As for `CC(C)CC(NC1CCOCC1)C(=O)NC(Cc1ccc(OCc2ccccc2)cc1)C(=O)NC(C)(C)CO` (stereo not drawn) [Example 73, [S-(R*,R*)]-4-Methyl-2-(tetrahydro-pyran4-ylamino)-pentanoic acid [2-(4-benzyloxy-phenyl)-1-(2-hydroxy-1,1-dimethyl-ethylearbamoyl)-ethyl]-amide], under setting [2], the IC50 amounted to 2700 nM. Take `CCC(CO)(CO)NC(=O)C(Cc1ccc(OCc2ccccc2)cc1)NC(=O)C(CC(C)C)NC1CCOCC1` (stereo not drawn) [Example 74, [S-(R*,R*)]-4-Methyl-2-(tetrahydro-pyran-4-ylamino)-pentanoic acid [2-(4-benzyloxy-phenyl)-1-(1,1-bis-hydroxymethyl-propylcarbamoyl)-ethyl]-amide]: the IC50 under setting [2] amounted to 2600 nM.

With `CC(C)CC(NC1CCOCC1)C(=O)NC(Cc1ccc(OCc2ccccc2)cc1)C(=O)NC(C)(C)C` (stereo not drawn) [Example 78, [S-(R*,R*)]-4-Methyl-2-(tetrahydro-pyran-4-ylamino)-pentanoic acid [2-(4-benzyloxy-phenyl)-1-tert-butylcarbamoyl-ethyl]-amide], the IC50 under setting [2] amounted to 1600 nM. On the same count and under the same terms, next, `CC(C)CC(C(=O)NC(Cc1ccc(OCc2ccccc2)cc1)C(=O)NC(C)(C)C)N(C)Cc1ccc(F)cc1` (stereo not drawn) [Example 80, [S-(R*,R*)]-2-[(4-Fluoro-benzyl)-methyl-amino]-4-methyl-pentanoic acid [2-(4-benzyloxy-phenyl)-1-tert-butylcarbamoyl-ethyl]-amide]: 300 nM. As to `CC(C)CC(NC1CCOCC1)C(=O)NC(Cc1ccc(OCc2ccccc2)cc1)C(=O)OC(C)(C)C` (stereo not drawn) [Example 85, [S-(R*,R*)]-3-(4-Benzyloxy-phenyl)-2-[4-methyl-2-(tetrahydro-pyran-4-ylamino)-pentanoylamino]-propionic acid tert-butyl ester], under setting [2], the IC50 amounted to 320 nM.

For `CC(C)CCNC(CC(C)C)C(=O)NC(Cc1ccc(OCc2ccccc2)cc1)C(=O)OC(C)(C)C` (stereo not drawn) [Example 95, [S-(R*,R*)]-3-(4-Benzyloxy-phenyl)2-[4-methyl-2-(3-methyl-butylamino)-pentanoylamino]-propionic acid tert-butyl ester], the IC50 under setting [2] worked out at 460 nM. Same read-out and setting: next, `CC(C)CCN(C)CC(=O)NC(Cc1ccc(OCc2ccccc2)cc1)C(=O)NC(C)(C)C` (stereo not drawn) [Example 102, [S-(R*,R*)]-3-(4-Benzyloxy-phenyl)-N-tert-butyl-2-{2-[methyl-(3-methyl-butyl)-amino]-acetylamino}-propionamide]: 1600 nM; `CC(C)CCNC(C)(C)C(=O)N[C@@H](Cc1ccc(OCc2ccccc2)cc1)C(=O)NC(C)(C)C` [Example 104, (S)-N-[2-(4-Benzyloxy-phenyl)-1-tert-butylcarbamoyl-ethyl]-2-(3-methyl-butylamino)-isobutyramide]: 1300 nM.

Consider `CC(C)CC(C(=O)NC(Cc1ccc(OCc2ccccc2)cc1)C(=O)NCCN1CCOCC1)N1CCOCC1` (stereo not drawn) [Example 119, [S-(R*,R*)]-4-Methyl-2-morpholin-4-yl-pentanoic acid [2-(4-benzyloxy-phenyl)-1-(2-morpholin-4-yl-ethylcarbamoyl)-ethyl]-amide], for which the IC50 under setting [1] stood at 18000 nM. On to `CC(C)CC(C(=O)NC(Cc1ccc(OCc2ccccc2)cc1)C(=O)NCCCn1ccnc1)N1CCOCC1` (stereo not drawn) [Example 121, [S-(R*,R*)]-4-Methyl-2-morpholin-4-yl-pentanoic acid [2-(4-benzyloxy-phenyl)-1-(3-imidazol-1-yl-propylcarbamoyl)-ethyl]-amide], for which, under setting [1], the IC50 was determined as 14000 nM. As to `CC(C)CC(C(=O)NC(Cc1ccc(OCc2ccccc2)cc1)C(=O)NCCNCCO)N(C)C` (stereo not drawn) [Example 140, [S-(R*,R*)]-2-Dimethylamino-4-methyl-pentanoic acid {2-(4-benzyloxy-phenyl)-1-[2-(2-hydroxy-ethylamino)-ethylcarbamoyl]-ethyl}-amide], the IC50 under setting [1] was 5100 nM. With “[S-(R*,R*)]-2-Dimethylamino-4-methyl-pentanoic acid [2-(4-benzyloxy-phenyl)-1-(2-hydroxymethylbutan-1-ol)-ethyl]-amide [Example 137]”, under setting [1], the IC50 stood at 6200 nM. Regarding “[S-(R*,R*)]-3-Methyl-2-[methyl-(3-methyl-butyl)-amino]-pentanoic acid [2-(4-benzyloxy-phenyl)-1-tert-butylcarbamoyl-ethyl]-amide [Example 44]”, the “IMR 32 % of Blockade @ 0.3 μM” value stood at 35% and the “IMR 32 % of Blockade @ 3 μM” value is 74%. Turning to “[S-(R*,R*)]-4-Methyl-2-(tetrahydropyran-4-yl-amino)-pentanoic acid [2-(4-benzyloxy-phenyl)-1-(2-pyrrolidine-1-yl-ethylcarbamoyl]-amide [Example 130]”, the IC50 under setting [1] was 6500 nM.
